The text below walks through data of publication PMC7862272, “Discovery of an ene-reductase for initiating flavone and flavonol catabolism in gut bacteria” (Nature Communications, 2021).

For series [1], the target named is T1, FLR (flavone reductase) (Flavonifractor plautii, UniProt A0A096D7X8).
T1 construct: gene HMPREF9460_03474; SeMet-labelled for crystals
In words: X-ray crystal structure (Se-SAD). Type of series: binding. To be noted: co-purified FMN at dimer interface.

Series [2] deals with T1, FLR (flavone reductase). In words: X-ray crystal structure, soaked SeMet crystal. Type of series: binding. To be noted: FMN bound, dimer interface.
The next series concerns the target T2, sgrIFR (Streptomyces griseus, UniProt B1W160).
T2 construct: gene SGR_2256; expressed in E. coli BL21 from pET28a, activity of the cell culture
T2 sequence (B1W160 1-332): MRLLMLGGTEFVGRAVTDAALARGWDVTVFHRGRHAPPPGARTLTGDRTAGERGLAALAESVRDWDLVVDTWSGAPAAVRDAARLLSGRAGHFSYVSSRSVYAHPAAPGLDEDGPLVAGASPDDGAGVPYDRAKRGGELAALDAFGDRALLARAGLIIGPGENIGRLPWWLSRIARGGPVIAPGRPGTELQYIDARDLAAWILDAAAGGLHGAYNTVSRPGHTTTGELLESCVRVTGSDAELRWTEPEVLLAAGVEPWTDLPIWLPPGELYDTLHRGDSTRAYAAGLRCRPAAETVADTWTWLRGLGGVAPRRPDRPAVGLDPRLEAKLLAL
Nature of the series: conversion by E. coli expressing the enzyme. It counts as cell-based. As to conditions: product dihydrodaidzein.

Series [3] has as its target flavone reductase (FLR) from Flavonifractor plautii ATCC 49531 (Flavonifractor plautii ATCC 49531). In words: SEC-MALS; Superdex-200 10/300; 100 mM NaCl, 20 mM Tris-HCl pH 7.9, 3 mM FMN, 3 mM DTT; 100 uL of FLR at ~5 mg/mL injected; room temperature. (In general: SEC sorts molecules by how far they enter the pores of the column.)
Substrate in the series “purified protein”: O=c1cc(-c2ccc(O)cc2)oc2cc(O)cc(O)c12
In words: purified protein. As to conditions: pH 7.0, 37 °C, 5 mM NADH, 0.5 mM FMN, 5 μM Fre, 5% DMSO, anaerobic.

Substrate in series [4]: O=C1C[C@@H](c2ccc(O)cc2)Oc2cc(O)cc(O)c21
Nature of the series: HPLC, steady-state kinetics, reverse reaction. It counts as biochemical, Flavonifractor plautii. As to conditions: pH 7.0, 37 °C, 0.5 mM FMN, 5% DMSO, reverse reaction (dehydrogenation to apigenin). An excerpt:
HPLC, steady-state kinetics, reverse reaction on FLR (flavone reductase) | The determination of the Km and kcat values of FLR for naringenin

Regarding `Cc1cc2nc3c(=O)[nH]c(=O)nc-3n(C[C@H](O)[C@H](O)[C@H](O)COP(=O)(O)O)c2cc1C` [FMN], the “X-ray crystal structure (Se-SAD)” value on FLR (flavone reductase) [1] is reported as “The cofactor molecule FMN binds at the dimer interface”. As to `O=c1cc(-c2ccc(O)cc2)oc2cc(O)cc(O)c12` [apigenin], the “X-ray crystal structure, soaked SeMet crystal” value at FLR (flavone reductase) [2] (2.55 Å) is “solved the complex structures of FLR with various substrates, including apigenin, chrysin, and luteolin”. As to `O=c1cc(-c2ccccc2)oc2cc(O)cc(O)c12` [chrysin], the “X-ray crystal structure, soaked SeMet crystal” value on FLR (flavone reductase) [2] (2.65 Å) is “solved the complex structures of FLR with various substrates, including apigenin, chrysin, and luteolin”. In the case of `O=c1c(-c2ccc(O)cc2)coc2cc(O)ccc12` [daidzein], the “conversion by E. coli expressing the enzyme” value on sgrIFR is “they could convert daidzein (a main isoflavone) to dihydrodaidzein”. Regarding `O=c1cc(-c2ccc(O)c(O)c2)oc2cc(O)cc(O)c12` [luteolin], the “X-ray crystal structure, soaked SeMet crystal” value on FLR (flavone reductase) [2] (2.25 Å) was “solved the complex structures of FLR with various substrates, including apigenin, chrysin, and luteolin”. One may read the stoichiometry N as the number of molecules, sites or subunits per partner or assembly. Regarding “flavone reductase (FLR) from Flavonifractor plautii ATCC 49531 (enzyme)”, the stoichiometry N in series [3] was 2.

B1: FLR (flavone reductase) (Flavonifractor plautii 1_3_50AFAA) (protein)
chain: MKILGISGGMRNGSNDGMCIEALMGAKEMGAEVEFIQLQNLHIEHCTGCTACVQSVLGGRGGKCVLKDDFDWLLDKMLDADGIVFSTPIFEKGATGLFHTITDRFGPRMDRGNNIIGTKIAEETGGTAPDPRILKDKVISFMSVGGSDWVTRTQCDAGMLALTPMWKVIDNEVFPWALSILVEDERVARAHQIGRNIAEAAKNIEHAQYQGDAGVCPHCHSRNFHLQDGKAICCLCGLEGEIHNESGKYSFTFPAEQLEHAHDTLSGKFIHGNDIKENTGKKIANMQTEKYKARQAAYRAFITATVPEKG
notes: SeMet-labelled for crystals
By Km is commonly meant the substrate concentration at which the rate is half of its maximum. One may read the kcat as the maximal rate divided by the concentration of active sites. B1: in the series “purified protein”, the Km came out at 8.36 ± 1.34 µM and the kcat is 0.0165 ± 0.0009 s⁻¹. In series [4], the Km stood at 12.27 ± 1.46 µM and the kcat came to 0.0577 ± 0.0025 s⁻¹.
